Measured values as given in patent publication US11400058B2, “Intravenous formulations of coenzyme Q10 (CoQ10) and methods of use thereof” (Berg LLC, priority 2010, dated 2022).

Columns and labels:
[1] = system: liver clone of a malignant chloroma; assay: Effect on liver cancer: liver clone of malignant chloroma in rats, alone and with cyclophosphamide; assay type: in vivo, Fischer 344 rats; conditions: Group III, cyclophosphamide 35 mg/kg once
Procedure: Effect of CoQ10 IV Formulation on Liver Cancer: The ability of a Coenzyme Q10 formulation of the present invention to inhibit proliferation of liver tumor cells was examined in an animal model. Twenty-four Fischer 344 rats were injected intraperitoneally with the liver clone of a malignant chloroma Rats were then randomized into groups of 6 rats each. Group 1 served as a control, treated with 0.5 mL of phosphate buffered saline on Monday, Wednesday and Friday for three (3) weeks. Group II received a sterile nanodispersion by IP injection of 20 mg of Coenzyme Q10. […] The formulation was administered by IP injection in a volume of 0.5 mL on Monday, Wednesday and Friday for three (3) weeks. Group III received 35 mg/kg of cyclophosphamide once. Group IV received 20 mg of the 4:3:1.5 CoQ10 formulation in 0.5 mL on Monday, Wednesday and Friday for three (3) weeks. In addition, they received 35 mg/kg of cyclophosphamide once.

[2] = system: lung clone of a malignant chloroma; assay: Effect on lung tumors: lung clone of malignant chloroma in rats, alone and with cyclophosphamide; assay type: in vivo, Fischer 344 rats; conditions: Group III, cyclophosphamide 35 mg/kg IP once
Procedure: Twenty-four Fischer 344 rats were injected intraperitoneally with the lung clone of a malignant chloroma. The rats were then randomized into groups of 6 rats each. Group 1 served as a control, treated with 0.5 mL of phosphate buffered saline (PBS) on Monday, Wednesday and Friday for three (3) weeks. […] The formulation was administered by IP injection in a volume of 0.5 mL on Monday, Wednesday, and Friday for three (3) weeks. Group III received 35 mg/kg cyclophosphamide by IP injection once.

MiaPACA2 = MiaPACA2 pancreatic carcinoma cells injected in the pancreas of NSG mice, survival; assay type: in vivo; conditions: doxorubicin group
Procedure: Effect of CoQ10 IV Formulation on Pancreatic Carcinoma Cell Line: MiaPACA2, a pancreatic cell line was employed on NSG mice. Mice were anesthetized in a sterile environment where they had been housed. Once animals reached surgical-plane anesthesia, mice were laid down, and the abdominal area was palpated. The pancreas was located behind the stomach, between the spleen, and the stomach, both of which are palpable organs. Thereafter, […] were injected in the pancreas by gently manipulating the animal to reach the area behind the stomach. All of these procedures were performed under sterile conditions in a biosafety cabinet, and the animals were housed under strict sterile conditions as well to avoid opportunistic infections. After injection of cells, animals were closely monitored daily. Animals were then randomized into 8 groups receiving a different dose of the CoQ10 N formulation. […] The formulation was administered intravenously via tail veins with dosing every other day three times per week for up to 28 days. The summary of results are depicted in the following graphs (FIGS. 49-56).

[3] = Combination therapy with doxorubicin, survival of rodents; assay type: in vivo; conditions: administered intraperitoneally, by itself, in rodents
Procedure: Combination Therapy With CoQ10 IV Formulation and Chemotherapy Adjuvant Doxorubicin, a powerful chemotherapeutic, is lethal when administered intraperitoneally, by itself, in rodents. CoQ10 IV Formulation was administered in combination with doxorubicin.

SMILES | rats remained disease-free [1] [rat] | the other three rats survived up to day [1] [days] | 4 rats survived up to day [2] [days] | rats remained disease-free [2] [rat] | survivors at 60 days (MiaPACA2) | lethality [3]
O=P1(N(CCCl)CCCl)NCCCO1 (stereo not drawn) [chemotherapy, cyclophosphamide] | 1 | 34 | 35 | 1 | – | –
COc1cccc2c1C(=O)c1c(O)c3c(c(O)c1C2=O)C[C@@](O)(C(=O)CO)C[C@@H]3O[C@H]1C[C@H](N)[C@H](O)[C@H](C)O1 [doxorubicin] | – | – | – | – | 0 of 30 | lethal
